Test results from PubChem BioAssay (NCI).
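Interpolation was linear, between the two tested concentrations surrounding the appropriate level; five concentrations were tested over 48 hours in 96-well plates. The concentration for 50% growth inhibition is given as GI50. TGI marks complete inhibition of growth.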

Experiments:
Assay in all cases: growth of human tumour cells (NCI), 48 h
786-0 renal = tested on: 786-0 renal
A498 renal = tested on: A498 renal
A549 NSCLC = tested on: A549 NSCLC
ACHN renal = tested on: ACHN renal
BT-549 breast = tested on: BT-549 breast
CAKI-1 renal = tested on: CAKI-1 renal
CCRF-CEM leukemia = tested on: CCRF-CEM leukemia
COLO 205 colon = tested on: COLO 205 colon
DU-145 prostate = tested on: DU-145 prostate
EKVX NSCLC = tested on: EKVX NSCLC
HCC-2998 colon = tested on: HCC-2998 colon
HCT-116 colon = tested on: HCT-116 colon
HCT-15 colon = tested on: HCT-15 colon
HL-60(TB) leukemia = tested on: HL-60(TB) leukemia
HOP-62 NSCLC = tested on: HOP-62 NSCLC
HOP-92 NSCLC = tested on: HOP-92 NSCLC
HS 578T breast = tested on: HS 578T breast
HT29 colon = tested on: HT29 colon
IGROV1 ovarian = tested on: IGROV1 ovarian
K-562 leukemia = tested on: K-562 leukemia
KM12 colon = tested on: KM12 colon
LOX IMVI melanoma = tested on: LOX IMVI melanoma
M14 melanoma = tested on: M14 melanoma
MALME-3M melanoma = tested on: MALME-3M melanoma
MCF7 breast = tested on: MCF7 breast
MDA-MB-231 breast = tested on: MDA-MB-231 breast
MDA-MB-435 = tested on: MDA-MB-435
MOLT-4 leukemia = tested on: MOLT-4 leukemia
NCI-H226 lung = tested on: NCI-H226 lung

## NC(=O)c1sc(-n2cnc3ccc(C(F)(F)F)cc32)cc1OCc1ccccc1Br
786-0 renal
  GI50: 5.31 µM
  TGI: > 25 µM
A498 renal
  GI50: 2.24 µM
  TGI: 16.2 µM
A549 NSCLC
  GI50: 1.57 µM
  TGI: > 25 µM
ACHN renal
  GI50: 5.54 µM
  TGI: > 25 µM
BT-549 breast
  GI50: 3.21 µM
  TGI: > 25 µM
CAKI-1 renal
  GI50: 15.3 µM
  TGI: > 25 µM
CCRF-CEM leukemia
  GI50: 0.685 µM
  TGI: > 25 µM
COLO 205 colon
  GI50: 0.802 µM
  TGI: 3.44 µM
DU-145 prostate
  GI50: 0.942 µM
  TGI: 3.89 µM
EKVX NSCLC
  GI50: > 21.3 µM
  TGI: > 25 µM
HCC-2998 colon
  GI50: 2.4 µM
  TGI: > 23.1 µM
HCT-116 colon
  GI50: 1.43 µM
  TGI: > 25 µM
HCT-15 colon
  GI50: 1.42 µM
  TGI: > 25 µM
HL-60(TB) leukemia
  GI50: 0.558 µM
  TGI: 1.76 µM
HOP-62 NSCLC
  GI50: 0.916 µM
  TGI: > 10.5 µM
HOP-92 NSCLC
  GI50: 2.5 µM
  TGI: 16.8 µM
HS 578T breast
  GI50: 4.22 µM
  TGI: > 22.8 µM
HT29 colon
  GI50: 0.858 µM
  TGI: > 25 µM
IGROV1 ovarian
  GI50: 2.22 µM
  TGI: > 25 µM
K-562 leukemia
  GI50: 1.06 µM
  TGI: > 25 µM
KM12 colon
  GI50: 0.723 µM
  TGI: 2.87 µM
LOX IMVI melanoma
  GI50: 1.5 µM
  TGI: > 25 µM
M14 melanoma
  GI50: 1.89 µM
  TGI: > 25 µM
MALME-3M melanoma
  GI50: 9.02 µM
  TGI: > 25 µM
MCF7 breast
  GI50: 0.805 µM
  TGI: > 6.28 µM
MDA-MB-231 breast
  GI50: 1.62 µM
  TGI: 19.3 µM
MDA-MB-435
  GI50: 0.636 µM
  TGI: 1.78 µM
MOLT-4 leukemia
  GI50: 0.965 µM
  TGI: > 25 µM
NCI-H226 lung
  GI50: 1.94 µM
  TGI: 18.6 µM
